# According to patent publication US6124269A, “2-Halo-6-O-substituted ketolide derivatives” (priority 1998, dated 2000):
# How the values were obtained:
# Assay type in all cases: cell-based
# [1] = system: Staphylococcus aureus ATCC 6538P; assay: In vitro agar dilution MIC, organism code AA; details: Table 1B, unit assumed
# Procedure: (§1) Representative compounds of the present invention were assayed in vitro for antibacterial activity as follows: Twelve petri dishes containing successive aqueous dilutions of the test compound mixed with 10 mL of sterilized Brain Heart Infusion (BHI) agar (Difco 0418-01-5) were prepared. Each plate was inoculated with 1:100 (or 1:10 for slow-growing strains, such as Micrococcus and Streptococcus) dilutions of up to 32 different microorganisms, using a Steers replicator block. The inoculated plates were incubated at 35-37° C. for 20 to 24 hours. In addition, a control plate, using BHI agar containing no test compound, was prepared and incubated at the beginning and end of each test.
# (§2) An additional plate containing a compound having known susceptibility patterns for the organisms being tested and belonging to the same antibiotic class as the test compound was also prepared and incubated as a further control, as well as to provide test-to-test comparability.
# (§3) After incubation, each plate was visually inspected. The minimum inhibitory concentration (MIC) was defined as the lowest concentration of drug yielding no growth, a slight haze, or sparsely isolated colonies on the inoculum spot as compared to the growth control.
# [2] = system: Nocardia asteroides ATCC 9970; assay: In vitro agar dilution MIC, organism code VV; details: Table 1B, in µg/mL (unit assumed)
# Procedure: as §1
# as §2, with “comparability. Erythromycin A was used for this purpose.” for “comparability.”
# as §3
# [3] = system: Streptococcus pyogenes 930; assay: In vitro agar dilution MIC, organism code MM; details: Table 1B, unit assumed
# Procedure: as §1, §2, §3
# [4] = system: Streptococcus pneumoniae ATCC 6303; assay: In vitro agar dilution MIC, organism code XX; details: Table 1B, unit assumed
# Procedure: as §1, §2, §3
# [5] = system: Mycobacterium smegmatis ATCC 114; assay: In vitro agar dilution MIC, organism code UU; details: Table 1B, in µg/mL (unit assumed)
# Procedure: as §1, §2, §3
# [6] = system: Streptococcus pneumoniae 5649; assay: In vitro agar dilution MIC, organism code ZZA; details: Table 1B, unit assumed
# Procedure: as §1, §2, §3
# [7] = system: Streptococcus pneumoniae GYR 1171; assay: In vitro agar dilution MIC, organism code YY; details: Table 1B, unit assumed
# Procedure: as §1, §2, §3
# [8] = system: Staphylococcus epidermidis 3519; assay: In vitro agar dilution MIC, organism code HH; details: Table 1B, in µg/mL (unit assumed)
# Procedure: as §1, §2, §3
# [9] = system: Staphylococcus aureus A-5278; assay: In vitro agar dilution MIC, organism code CC; details: Table 1B, unit assumed
# Procedure: as §1, §2, §3
# [10] = system: Streptococcus pyogenes PIU 2548; assay: In vitro agar dilution MIC, organism code NN; details: Table 1B, unit assumed
# Procedure: as §1, §2, §3
# Escherichia coli JUHL = assay: In vitro agar dilution MIC, organism code QQ; details: Table 1B, in µg/mL (unit assumed)
# Procedure: as §1, §2, §3
# [11] = system: Staphylococcus aureus NCTC10649M; assay: In vitro agar dilution MIC, organism code EE; details: Table 1B, unit assumed
# Procedure: as §1, §2, §3
# [12] = system: Staphylococcus aureus 1775; assay: In vitro agar dilution MIC, organism code GG; details: Table 1B, unit assumed
# Procedure: as §1, §2, §3
# [13] = system: Streptococcus pyogenes EES61; assay: In vitro agar dilution MIC, organism code LL; details: Table 1B, unit assumed
# Procedure: as §1, §2, §3
# [14] = system: Haemophilis influenzae DILL AMP R; assay: In vitro agar dilution MIC, organism code WW; details: Table 1B, unit assumed
# Procedure: as §1, §2, §3
# Candida albicans CCH 442 = assay: In vitro agar dilution MIC, organism code TT; details: Table 1B, unit assumed
# Procedure: as §1, §2, §3
# [15] = system: Enterococcus faecium ATCC 8043; assay: In vitro agar dilution MIC, organism code II; details: Table 1B, unit assumed
# Procedure: as §1, §2, §3
# [16] = system: Micrococcus luteus ATCC 4698; assay: In vitro agar dilution MIC, organism code PP; details: Table 1B, in µg/mL (unit assumed)
# Procedure: as §1, §2, §3
# [17] = system: Staphylococcus aureus CMX 642A; assay: In vitro agar dilution MIC, organism code DD; details: Table 1B, unit assumed
# Procedure: as §1, §2, §3
# Escherichia coli DC-2 = assay: In vitro agar dilution MIC, organism code SS; details: Table 1B, unit assumed
# Procedure: as §1, §2, §3
# [18] = system: Micrococcus luteus ATCC 9341; assay: In vitro agar dilution MIC, organism code OO; details: Table 1B, unit assumed
# Procedure: as §1, §2, §3
# Escherichia coli SS = assay: In vitro agar dilution MIC, organism code RR; details: Table 1B, in µg/mL (unit assumed)
# Procedure: as §1, §2, §3
# [19] = system: Staphylococcus aureus CMX 553; assay: In vitro agar dilution MIC, organism code FF; details: Table 1B, unit assumed
# Procedure: as §1, §2, §3
# [20] = system: Staphylococcus aureus A5177; assay: In vitro agar dilution MIC, organism code BB; details: Table 1B, in µg/mL (unit assumed)
# Procedure: as §1, §2, §3
# [21] = system: Streptococcus pneumoniae 5979; assay: In vitro agar dilution MIC, organism code ZZ; details: Table 1B, unit assumed
# Procedure: as §1, §2, §3
# [22] = system: Streptococcus bovis A-5169; assay: In vitro agar dilution MIC, organism code JJ; details: Table 1B, unit assumed
# Procedure: as §1, §2, §3
# [23] = system: Streptococcus agalactiae CMX 508; assay: In vitro agar dilution MIC, organism code KK; details: Table 1B, unit assumed
# Procedure: as §1, §2, §3
SMILES,MIC [1],MIC [2],MIC [3],MIC [4],MIC [5],MIC [6],MIC [7],MIC [8],MIC [9],MIC [10],MIC (Escherichia coli JUHL),MIC [11],MIC [12],MIC [13],MIC [14],MIC (Candida albicans CCH 442),MIC [15],MIC [16],MIC [17],MIC (Escherichia coli DC-2),also measured
CC[C@H]1OC(=O)[C@@](C)(F)C(=O)[C@H](C)[C@@H](O[C@@H]2O[C@H](C)C[C@H](N(C)C)[C@H]2O)[C@](C)(OC/C=C/c2ccc3ncccc3c2)C[C@@H](C)C(=O)[C@H](C)[C@H]2NC(=O)O[C@@]21C [Example 10],0.1 µg/mL,0.01,0.39 µg/mL,0.015 µg/mL,0.1,0.25 µg/mL,0.015 µg/mL,0.2,> 100 µg/mL,0.1 µg/mL,100,0.1 µg/mL,> 100 µg/mL,0.02 µg/mL,2 µg/mL,> 100 µg/mL,0.05 µg/mL,0.1,0.1 µg/mL,100 µg/mL,MIC [18]: 0.02 µg/mL; MIC (Escherichia coli SS): 0.1; MIC [19]: 0.1 µg/mL; MIC [20]: 0.1; MIC [21]: 0.25 µg/mL; MIC [22]: 0.01 µg/mL; MIC [23]: 0.05 µg/mL
C=CCO[C@]1(C)C[C@@H](C)C(=O)[C@H](C)[C@H]2NC(=O)O[C@]2(C)[C@@H](CC)OC(=O)[C@@](C)(F)C(=O)[C@H](C)[C@H]1O[C@@H]1O[C@H](C)C[C@H](N(C)C)[C@H]1O [Example 4],0.78 µg/mL,0.39,> 100 µg/mL,0.06 µg/mL,6.2,0.25 µg/mL,0.03 µg/mL,0.78,> 100 µg/mL,0.39 µg/mL,> 100,0.78 µg/mL,> 100 µg/mL,0.2 µg/mL,8 µg/mL,> 100 µg/mL,0.2 µg/mL,0.78,0.78 µg/mL,> 100 µg/mL,MIC [18]: 0.39 µg/mL; MIC (Escherichia coli SS): 0.78; MIC [19]: 0.78 µg/mL; MIC [20]: 0.78; MIC [21]: > 128 µg/mL; MIC [22]: 0.2 µg/mL; MIC [23]: 0.2 µg/mL
CC[C@H]1OC(=O)[C@@](C)(F)C(=O)[C@H](C)[C@@H](O[C@@H]2O[C@H](C)C[C@H](N(C)C)[C@H]2O)[C@](C)(OC/C=C/c2cnc3ccc(C(N)=O)cc3c2)C[C@@H](C)C(=O)[C@H](C)[C@H]2NC(=O)O[C@@]21C [Example 15],0.05 µg/mL,0.05,0.1 µg/mL,≤ 0.004 µg/mL,0.39,0.25 µg/mL,≤ 0.004 µg/mL,0.05,> 100 µg/mL,0.1 µg/mL,25,0.05 µg/mL,> 100 µg/mL,0.01 µg/mL,4 µg/mL,> 100 µg/mL,0.05 µg/mL,0.05,0.05 µg/mL,12.5 µg/mL,MIC [18]: 0.01 µg/mL; MIC (Escherichia coli SS): 0.2; MIC [19]: 0.05 µg/mL; MIC [20]: 0.05; MIC [21]: 0.5 µg/mL; MIC [22]: 0.01 µg/mL; MIC [23]: 0.01 µg/mL
CC[C@H]1OC(=O)[C@@](C)(F)C(=O)[C@H](C)[C@@H](O[C@@H]2O[C@H](C)C[C@H](N(C)C)[C@H]2O)[C@](C)(OC/C=C/c2cnc3ccc(C=NO)cc3c2)C[C@@H](C)C(=O)[C@H](C)[C@H]2NC(=O)O[C@@]21C [Example 18],0.02 µg/mL,0.01,0.2 µg/mL,0.015 µg/mL,0.78,0.25 µg/mL,0.015 µg/mL,0.05,50 µg/mL,0.02 µg/mL,25,0.05 µg/mL,50 µg/mL,≤ 0.005 µg/mL,2 µg/mL,> 100 µg/mL,0.02 µg/mL,0.02,0.05 µg/mL,50 µg/mL,MIC [18]: 0.01 µg/mL; MIC (Escherichia coli SS): 0.2; MIC [19]: 0.05 µg/mL; MIC [20]: 0.05; MIC [21]: 0.25 µg/mL; MIC [22]: ≤ 0.005 µg/mL; MIC [23]: 0.01 µg/mL
